Patent US20220402862A1 (Intellia Therapeutics, Inc., priority 2019, published 2022)

Assays:
[1] = pKa measurement of unformulated amine lipid (fluorescence, method of Jayaraman et al.); format: physicochemical; details: 100 μM in 0.1 M phosphate buffer, pH 2.0-12.0
Experimental: The pKa of each amine lipid was determined according to the method in Jayaraman, et al. (Angewandte Chemie, 2012) with the following adaptations. […] Lipid was diluted to 100 μM in 0.1 M phosphate buffer (Boston Bioproducts) where the pH ranged from 2.0-12.0. Fluorescence intensity was measured using excitation and emission wavelengths of 321 nm and 448 nm.

[2] = Dynamic light scattering of LNPs: Z-average diameter, number average diameter, PDI; format: physicochemical; details: LNP, sg:mRNA 1:1, N/P about 6, 50/9/38/3; Table 2, Experiments 2-20
Method in brief: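 LNP samples were diluted in PBS and measured by DLS to give intensity-based Z-average diameter, number average diameter and polydispersity index. PDI describes size spread around the mean, with zero meaning a uniform population.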

Transthyretin (TTR) = test: Serum TTR ELISA in mice after LNP dosing; format: in vivo, CD-1 female mice; details: guide G282 experiments; for Serum TTR % TSS: mouse serum TTR relative to TSS control; for Serum TTR: mouse serum, ELISA
Method in brief: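 Female CD-1 mice, 6–10 weeks, given LNPs by tail-vein injection (~10 mL/kg), 0.1 mg/kg unless noted; serum taken at day 6 or 7 by cardiac puncture. Total mouse TTR by ELISA on sera diluted 10,000-fold (0.1 mg/kg) or 10,000- and 2,500-fold (0.3 mg/kg).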

[3] = RNA encapsulation efficiency of LNPs (Ribogreen fluorescence assay); format: physicochemical; details: LNP, sg:mRNA 1:1, N/P about 6, amine lipid/DSPC/cholesterol/PEG-2k-DMG 50/9/38/3; Table 2, Experiments 2-20
Method in brief: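 LNPs were diluted in 1× TE with 0.2% Triton X-100 (total RNA) or without it (free RNA), stained with RiboGreen for ~10 min at room temperature in the dark, and read at Ex 488/Em 525 nm against standard curves of the starting RNA. Encapsulation efficiency = (Total − Free)/Total.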

SMILES	pKa [1]	Number mean (nm) [2]	PDI [2]	Z-avg (nm) [2]	Serum TTR % TSS (Transthyretin (TTR))	Serum TTR (Transthyretin (TTR))	Encapsulation (%) [3]
CCCCC/C=C\C/C=C\CCCCCCCC(=O)OCC(COC(=O)CCC(OCCCCCCCC)OCCCCCCCC)COC(=O)NCC1CCCN1C (stereo not shown) [Compound 39, 3-((4,4-bis(octyloxy)butanoyl)oxy)-2-(((((1-methylpyrrolidin-2-yl)methyl)carbamoyl)oxy)methyl)propyl (9Z,12Z)-octadeca-9,12-dienoate]	7.34	64.79 nm	0.024	79.81 nm	82%	656 µg/mL	97%
CCCCCCCCCCCCCCOC(=O)CCCCCCCC(=O)OCC(COC(=O)CCC(OCCCCCCCC)OCCCCCCCC)COC(=O)OCCCN(CC)CC (stereo not shown) [Compound 93, 1-(3-((4,4-bis(octyloxy)butanoyl)oxy)-2-((((3-(diethylamino)propoxy)carbonyl)oxy)methyl)propyl) 9-tetradecyl nonanedioate]	6.15	78.73 nm	0.004	95.19 nm	88%	669 µg/mL	98%
CCCCCCCCCC(CC)OC(=O)CCCCCCCC(=O)OCC(COC(=O)CCC(OCCCCCCCC)OCCCCCCCC)COC(=O)OCCCN(CC)CC (stereo not shown) [Compound 95, 1-(3-((4,4-bis(octyloxy)butanoyl)oxy)-2-((((3-(diethylamino)propoxy)carbonyl)oxy)methyl)propyl) 9-(dodecan-3-yl) nonanedioate]	6.14	74.5 nm	0.029	91.1 nm	54%	408 µg/mL	99%
CCCCC/C=C\C/C=C\CCCCCCCC(=O)OCC(COC(=O)CCC(OCCCCCCCC)OCCCCCCCC)COC(=O)NCC1CCCCN1CC (stereo not shown) [Compound 38, 3-((4,4-bis(octyloxy)butanoyl)oxy)-2-(((((1-ethylpiperidin-2-yl)methyl)carbamoyl)oxy)methyl)propyl (9Z,12Z)-octadeca-9,12-dienoate]	7.17	74.58 nm	0.019	91.5 nm	60%	481 µg/mL	96%
CCCCC/C=C\C/C=C\CCCCCCCC(=O)OCC(COC(=O)CCC(OCCCCCCCC)OCCCCCCCC)COC(=O)NC1CCCN(C)C1 (stereo not shown) [Compound 42, 3-((4,4-bis(octyloxy)butanoyl)oxy)-2-((((1-methylpiperidin-3-yl)carbamoyl)oxy)methyl)propyl (9Z,12Z)-octadeca-9,12-dienoate]	6.9	58.66 nm	0.027	74.03 nm	81%	902 µg/mL	99%
CCCCC/C=C\C/C=C\CCCCCCCC(=O)OCC(COC(=O)CCCN(C)C)COC(=O)CCC(OCCCCCCCC)OCCCCCCCC (stereo not shown) [Compound 26, 3-((4,4-bis(octyloxy)butanoyl)oxy)-2-(((4-(dimethylamino)butanoyl)oxy)methyl)propyl (9Z,12Z)-octadeca-9,12-dienoate]	7.39	73 nm	0.000	88 nm	112%	1008 µg/mL	98%
CCCCCCCCCCOC(=O)CCCCCCCC(=O)OCC(COC(=O)CCC(OCCCCCCCC)OCCCCCCCC)COC(=O)OCCC1CCCN1C (stereo not shown) [Compound 74, 1-(3-((4,4-bis(octyloxy)butanoyl)oxy)-2-((((2-(1-methylpyrrolidin-2-yl)ethoxy)carbonyl)oxy)methyl)propyl) 9-decyl nonanedioate]	6.39	87.14 nm	0.021	105.7 nm	44%	406 µg/mL	99%
